The values below come from patent publication US9211313B2, “Methods and compound to inhibit Ca2+ permeable cation conductance” (priority 2011, dated 2015).

Holding throughout (type): cell-based
Experiment [1] relates to deoxygenation-activated cation conductance in human SS red cells. As to the kind of experiment: On-cell patch clamp of deoxygenation-activated cation conductance, symmetric Na methanesulfonate. How it is done: (§1) Blood cell preparation: Human SS and AA blood was obtained under IRB-approved protocols of Children's Hospital and Beth Israel Deaconess Medical Center. After buffy coat removal and 5 washes in standard human red cell wash solution containing (in mM) 150 choline Cl, 1 MgCl, and 10 Tris-MOPS, pH 7.4, red cells were resuspended in storage solution containing (in mM) 145 KCl, 15 NaCl, and 10 HEPES, pH 7.4, then kept at 4° C. until used. Human red cells allowed to settle on coverslips were mounted on an inverted microscope in a 200 μl open chamber (WPI, Sarasota, Fla.) and superfused 15 min at room temperature by bath solution containing (in mM) 150 Na methanesulfonate, 10 Na EDTA, and 10 Na HEPES, pH 7.4.
Mouse red cells allowed to settle on coverslips were superfused 15 min with bath solution containing (in mM) either 150 mM Na methanesulfonate, 10 Na EDTA, and 10 Na HEPES, pH 7.4; or 140 NaCl, 4 KCl, 1CaCl2, 1 MgCl2, 10 Na HEPES, pH 7.4. Deoxygenation was achieved by switching superfusate to the same solution gassed ≧30 min prior to the experiment with 100% N2, and by flushing of the perfusion chamber with N2 during the deoxygenation period. The resulting bath pO2 was 18 mm Hg as measured by oxygen electrode (WPI). In the experiments of FIG. 1, deoxygenated cells were subsequently re-oxygenated by exposure to the same superfusate equilibrated with room air.
(§2) Washed human or mouse red cells in solution containing (in mM) 140 NaCl, 5 KCl, 1 CaCl2, 1 MgCl2, 10 Na HEPES, pH 7.4 were exposed for 1 hr on a rotary platform in a 37° C. incubator to 25 ppm carbon monoxide (CO) in 5% CO2. CO-exposed cells were then subjected to patch clamp or to calcium imaging experiments within 60 min after return to room air, using the solutions indicated.
(§3) On-cell patch clamp: Borosilicate pipettes (Corning 7052) pulled with a Narishige two stage puller or a Sutter P97 puller and fire-polished to resistances of 10-20 MΩ were front-filled and then backfilled. Symmetric bath and pipette solutions for studies of seal resistance stability during reversibility tests of the deoxygenation-activated conductance in SAD mouse red cells were (in mM) 140 NaCl, 4 KCl, 1 CaCl2, 1 MgCl2, 10 Na HEPES, pH 7.4. These conditions yielded tight seals in 13% of patch attempts on SAD cells. For study of deoxygenation-induced monovalent cation permeation in the absence of bath Ca^2+ and Mg^2+ recorded in SAD and Berkeley mouse cells and in human cells, symmetric bath and pipette solutions contained (in mM) 150 Na methanesulfonate, 10 Na EDTA, and 10 Na HEPES, pH 7.4. These conditions yielded tight seals in 16% of patch attempts on SAD mouse red cells, 26% of attempts on Berkeley mouse cells, and 30% of attempts on human SS cells. For study of Ca^2+ permeation in human SS cells, bath and pipette solutions contained (in mM) 100 CaCl2, 10 Na HEPES, pH 7.4. These conditions yielded tights seals on 44% of attempts. For all conditions tested in human red cells, 70% of tight seals were sustained through the solution change accompanying deoxygenation to allow recording of current activity.
(§4) On-cell patch currents were recorded with the Axopatch 1-D amplifier (Axon Instruments/Molecular Devices, Sunnyvale, Calif.). Holding potential was −Vp=−50 mV (expressed as the negative of the pipette potential (e.g., equivalent to the intracellular potential with respect to the pipette). To determine current-voltage relationships (I-V curves) in Fetchex or Clampex (PCLAMP, Axon Instruments), the realtime control window in gap-free mode was used to record current traces of 10-30 sec duration at holding potentials ranging from −100 to +100 mV, in 25 mV increments. The bath reference electrode was a silver chloride wire with a 3 M KCl agar bridge. Data was filtered at 500 Hz, digitized at 2 kHz by Clampex, and analyzed offline by Fetchan and Pstat or by Clampfit subroutines of PCLAMP. Holding potentials in on-cell patch experiments were expressed as −Vp, the negative of the pipette potential.
(In general: The patch-clamp technique gives a direct electrical read-out from membranes.)

The next experiment relates to human SS red cells. The experiment is described as follows: Fluo-3 fluorescence measurement of [Ca2+]i during deoxygenation, human SS cells. The note with it: CO preincubation, no continued CO exposure. How it is done: as §1, §2
(§5) Fluorescence measurements of cytosolic [Ca^2+] ([Ca^2+]i): After removal of plasma and buffy coat by aspiration, human or mouse red cells were washed three times at room temperature and suspended in modified Hank's solution containing (in mM), 137 NaCl, 5.4 KCl, 1 CaCl2, 1 MgCl2, 0.8 NaK phosphate, 5.6 glucose, and 10 Na HEPES, pH 7.4. Dilute cell suspensions were settled on polylysine-coated coverslips forming the bottom of an open perfusion chamber (2.5 cm diameter, 1 cm depth) and washed again 3 times.
Measurement of relative changes in [Ca^2+]i by Fluo-3 fluorescence emission was previously validated in intact human (Yang et al. 2000, Blood, 95(7):2421-2425; Andrews et al. 2002, Blood, 199(9):3392-3399) and mouse red cells (Akel et al. 2007, Amer. J. Physiol., 292(5):C1759-1767). […] Fluorescence emission (proportional to [Ca^2+]i) from a 535ds20 bandpass filter was collected from all attached single cells within the arbitrarily selected visual field. […]
(§6) Fluo-3 fluorescence from attached cells on each coverslip was recorded 60 sec in room air and then for 10 min after onset of perfusion chamber flushing with humidified 100% N2. The normalized increase in Fluo-3 fluorescence in SS cells subjected to this deoxygenation procedure was indistinguishable from that observed during superfusion of cells in a closed perfusion chamber via syringe pump with bath previously bubbled for 60 min with 100% N2 (n=62 cells from 2 SS patients, not shown). The y-axis value of 0% change in Fluo-3 fluorescence intensity represented mean intensity recorded from all cells within the coverslip visual field during the 60 sec prior to deoxygenation.

The target in another experiment is T1, KCa3.1 (Homo sapiens, UniProt O15554).
T1 construct: KCa3.1 activity stimulated in intact human AA cells by 1 μM A23187; endogenous in cells; host or cells: intact human AA red blood cells
T1 sequence (O15554 whole entry): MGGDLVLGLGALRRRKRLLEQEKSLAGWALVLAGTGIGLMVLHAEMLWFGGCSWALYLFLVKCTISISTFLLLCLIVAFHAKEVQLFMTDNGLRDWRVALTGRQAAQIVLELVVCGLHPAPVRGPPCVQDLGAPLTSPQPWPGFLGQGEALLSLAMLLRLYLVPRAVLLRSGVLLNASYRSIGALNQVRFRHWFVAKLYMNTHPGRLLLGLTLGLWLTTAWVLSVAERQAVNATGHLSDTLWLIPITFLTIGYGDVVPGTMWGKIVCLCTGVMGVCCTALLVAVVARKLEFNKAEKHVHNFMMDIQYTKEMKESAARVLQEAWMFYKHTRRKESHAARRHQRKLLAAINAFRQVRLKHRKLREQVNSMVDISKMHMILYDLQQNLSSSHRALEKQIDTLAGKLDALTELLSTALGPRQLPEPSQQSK

The subject of experiment [2] is LPA-induced cation conductance in human SS red cells. As to the kind of experiment: On-cell patch clamp of LPA-induced cation conductance.
Source text: as §3, §4
Deoxygenation-activated flickering cation conductance observed in human SS cells contrasted with the prolonged channel openings produced by 5 μM LPA (FIG. 10A). In SS cells, LPA increased NPo […], from 0.04±0.03 to 0.82±0.18 (n=8, p<0.001; Na methanesulfonate in bath and pipette, −Vp=−50 mV; FIG. 10B). LPA-induced cation conductance was 96% inhibited by 100 uM dipyridamole in the pipette, and 97% inhibited by 1 μM GsMTx-4 in the pipette (both n=4).

Experiment [3] concerns SAD sickle mouse red cells. As to the kind of experiment: Fluo-3 fluorescence measurement of [Ca2+]i during deoxygenation, SAD cells. How it is done:
Blood was withdrawn by cardiac puncture or from the tail vein of C57B16/J wildtype mice, SAD sickle mice, or Berkeley sickle mice into heparinized syringes by IACUC-approved protocols of Beth Israel Deaconess Medical Center. Buffy coat-depleted cells were washed 5 times in standard mouse red cell wash solution containing (in mM) 172 choline Cl, 10 sucrose, 10 Na Tris-MOPS, pH 7.4, resuspended in storage solution, and kept at 4° C. until use.
as §5
Measurement of relative changes in [Ca^2+]i by Fluo-3 fluorescence emission was previously validated in intact human (Yang et al. 2000, Blood, 95(7):2421-2425; Andrews et al. 2002, Blood, 199(9):3392-3399) and mouse red cells (Akel et al. 2007, Amer. J. Physiol., 292(5):C1759-1767). Attached red cells were loaded in the dark with the fluorescent non-ratiometric Ca^2+ indicator Fluo-3-AM (10 μM, Molecular Probes, Eugene, Oreg.) at 37° C. for 1 hr, then washed and incubated 15 min further to allow de-esterification of intracellular dye. The open perfusion chamber containing dye-loaded cells was mounted on an Olympus IMT-2 inverted epifluorescence microscope equipped with CoolSNAP CCD camera (Photometrics, Tucson, Ariz.). Fluo-3 in cells imaged through a 60× objective was excited by mercury-xenon illumination passed through a 495ds20 filter. Fluorescence emission (proportional to [Ca^2+]i) from a 535ds20 bandpass filter was collected from all attached single cells within the arbitrarily selected visual field. Emission image acquisition was controlled by a Metafluor digital imaging system (Universal Imaging, West Chester, Pa.).
as §6

“Also recorded” adds a separate entry of the source. Where only a bound is given, the exact number is not on record here.

As for `[C-]#[O+]` [CO, carbon monoxide], in experiment [1] (CO-pretreated cells, n=4), the NPo upon deoxygenation is reported as 0.0625±0.0375 and the “Normoxic NPo” value worked out at 0.0377±0.0375. For the same compound, in experiment [1] (prior CO exposure of SS cells), the “effect on activation of conductance upon deoxygenation” value is recorded as “prevented”. For the same compound, the “effect on [Ca2+]i elevation by deoxygenation” value with human SS red cells is listed as “blocked; also recorded: inhibited”.

As to `O=S(=O)(O)c1cc(N=C=S)ccc1C=Cc1ccc(N=C=S)cc1S(=O)(=O)O` [DIDS, 4,4′-diisothiocyanatostilbene-2,2′-disulfonic acid], the “effect on deoxygenation-induced activation of cation conductance” value in experiment [1] (100 μM in the pipette) is on record as “prevented; also recorded: blocked”. Further, in experiment [1] (100 μM in the pipette, n=4), the “NPo after deoxygenation (hypoxic)” value worked out at 0.001±0.001 and the “Normoxic NPo” value stood at 0.002±0.002.

On to `Clc1ccccc1C(c1ccccc1)(c1ccccc1)n1ccnc1` [clotrimazole, reference compound], for which the “effect on A23187-stimulated cell shrinkage” value on KCa3.1 is listed as “completely inhibited”.

Turning to `OCCN(CCO)c1nc(N2CCCCC2)c2nc(N(CCO)CCO)nc(N3CCCCC3)c2n1` [dipyridamole], the “effect on LPA-induced increase in NPo” value in experiment [2] (100 μM in the pipette) is given as “prevented”. Moreover, 100 µM produced 96% inhibition in experiment [2] (Homo sapiens, 100 uM in the pipette, 5 μM LPA, n=4). Also, the “effect on deoxygenation-induced activation of cation conductance” value in experiment [1] (100 μM in the pipette) is recorded as “prevented”. For the same compound, in experiment [1] (100 μM in the pipette, n=4), the “NPo after deoxygenation (hypoxic)” value is listed as 0.004±0.002 and the “Normoxic NPo” value is 0.00.

For `[Na+].[Na+].[Na+].[O]=[V]([O-])([O-])[O-]` [vanadate, Na vanadate], the “effect on deoxygenation-induced [Ca2+]i elevation” value in experiment [3] (50 μM in bath, acute deoxygenation) is “enhanced; also recorded: further elevated”. In addition, in experiment [3] (50 μM, continued presence), the “time to plateau [Ca2+]i after deoxygenation” value is given as less than 2 min. In addition, the “[Ca2+]i-dependent Fluo-3 emission increase” value in experiment [3] (50 μM, 5 min normoxic preincubation of SAD cells) is on record as 12.8±1.8%. Moreover, in experiment [3] (50 μM, after ~4 min longer at plateau), the “late [Ca2+]i relative to plateau” value is listed as “twice the previous plateau value”.

Usually inhibition stands for how much of the control response was suppressed. The low end stands for a weak effect, the high end for a strong effect.
